Test results reported in US20170209403A1, “METHOD FOR REGULATING ALDEHYDE DEHYDROGENASE 1” (National Cheng Kung University, priority 2016, published 2017).

Key:
ALDH1 [1] = experiment: Aldefluor assay of ALDH1 enzyme activity / ALDH1-High cell fraction; assay type: cell-based, human
Description: (§1) An Aldefluor® kit (StemCell Technologies) was used to assess ALDH activity in the ovarian cancer cell lines, as previously described (Saw, Y. T. et al. (2012) BMC Cancer, 12, 329.). In brief, 1×10^6 cells were incubated in Aldefluor® assay buffer containing a 1.5 μM ALDH substrate for 30 min at 37° C. Each sample was treated with 50 μM of DEAB, and used as a negative control. Prior to analysis, cells were stained with […] of propidium iodide to evaluate their viability. The fluorescence intensity of the stained cells was analysed using a FACSAria cell sorter Flow Cytometer (BD Biosciences). The reaction with DEAB was used to define the baseline for the assay. The ALDH activity of a sample was determined to be ‘high’ or ‘low’ based on the fluorescence intensity beyond or below the threshold defined by the reaction with DEAB. The cells having high or low ALDH activity are marked “-High” or “-Low” hereafter.

[2] = test system: ES2 cells (ES2-High, ES2-Low); experiment: Sphere formation assay; assay type: cell-based, human; conditions: ES2-High cells; ATRA (10 μM)
Description: (§2) Right panel: relative fold changes of ALDH1 and FoxM1 expression compared with controls. […] Sphere formation in ES2-High cells after treatment with different concentrations of Thiostrepton or DAPT, and the relative fold changes in expression are shown (scale bar=200 μm).
(§3) Standard sphere formation assays were performed according to Zhang et al. (Zhang, S. et al. Cancer Res., 68, 4311-4320.) with minor modification. The cells (1×10^3) were resuspended in serum-free DMEM/F12 medium supplemented with 5 μg/ml insulin (Sigma), 20 ng/ml human recombinant epidermal growth factor (EGF; Invitrogen, Life Technologies, Carlsbad, Calif.) and 10 ng/ml basic fibroblast growth factor (bFGF; Invitrogen) in ultra-low attachment plates (Corning Costar, Corning, N.Y.). Spheres that arose within 1-2 weeks were counted. Colony diameters >50 μm were counted as a single-positive colony. The middle field was chosen for counting of spheres, and two fields for each plate were counted under a dissecting microscope. For all sphere formation experiments, a minimum of eight wells was run for each condition. All data represent the mean ±SEM of three separate experiments and at least 24 different fields.
as §1

CP70-High cells = experiment: Tumourigenesis of ATRA-pretreated cells in mouse xenograft; assay type: in vivo, NOD/SCID mice
Description: (§4) All animal studies adhered to protocols approved by the Institutional Animal Care and Use Committee of National Cheng Kung University Medical Centre. The mouse xenograft model was prepared as previously reported (Molthoff, C. F. et al. (1991) Int. J. Cancer, 47, 72-79). Briefly, cells were implanted in 50% Matrigel (BD Biosciences, San Jose, Calif.) and injected subcutaneously into the left flanks of 4- to 6-week-old female NOD/SCID (NOD.CB17-PRKDC (SCID)) mice. We observed mice for tumour formation every other day after cell inoculation and measured tumour size when it became measurable. Tumour size was measured using Vernier callipers by external measurement of the length and width, and the tumour volume was computed from the formula for an ellipsoid body […]. When the tumours reached ˜2000 mm^3 at approximately 28 days, the mice were sacrificed. […] All tumours were excised, fixed in 10% neutral buffered formalin, and embedded in paraffin for histological assessment or shock-frozen in liquid N2 and stored at −80° C. for further analysis.
We then inoculated 1×10^4 ATRA-pretreated A2780-High or CP70-High cells into mice. […] However, these findings were not observed in ES2-Low cells (FIG. 4A and FIG. 4B).

A2780-High cells = experiment: as above; assay type: in vivo, NOD/SCID mice
Description: Briefly, cells were implanted in 50% Matrigel (BD Biosciences, San Jose, Calif.) and injected subcutaneously into the left flanks of 4- to 6-week-old female NOD/SCID (NOD.CB17-PRKDC (SCID)) mice. We observed mice for tumour formation every other day after cell inoculation and measured tumour size when it became measurable. Tumour size was measured using Vernier callipers by external measurement of the length and width, and the tumour volume was computed from the formula for an ellipsoid body [volume=(length/2)×(width)]. When the tumours reached ˜2000 mm^3 at approximately 28 days, the mice were sacrificed. […] All tumours were excised, fixed in 10% neutral buffered formalin, and embedded in paraffin for histological assessment or shock-frozen in liquid N2 and stored at −80° C. for further analysis.

ES2-High cells [3] = experiment: MTT cytotoxicity assay (proliferation, doubling time); assay type: cell-based, human; conditions: ATRA
Description: as §2
(§5) The cell lines were cultured in a humidified incubator containing 95% air and 5% CO2 at 37° C. in 96-well flat-bottomed microtiter plates. After 72 h of incubation, the in vitro cytotoxic effects of treatments were determined by MTT assay (at 570 nm).

[4] = test system: ALDH1, FoxM1 and Notch-1 expression in ES2 cells; experiment: Western blotting of ALDH1, FoxM1 and Notch1; assay type: cell-based, human; conditions: ES2-High cells; ATRA
[5] = test system: A2780 and CP70 ovarian cancer cells; experiment: MTT cytotoxicity assay (proliferation, doubling time); assay type: cell-based, human; conditions: A2780-High and CP70-High cells; ATRA treatment
Description: as §5

[6] = test system: A2780 and CP70 ovarian cancer cells; experiment: Sphere formation assay; assay type: cell-based, human; conditions: A2780-High and CP70-High cells; 10 μM ATRA for 28 days
Description: FIGS. 1A-1F show ALDH1 regulates stemness and tumourigenic ability in ovarian cancer cells. […] A total of 1×10^3 A2780 (upper panel) and CP70 (lower panel) cells were seeded into a 96-well plate to evaluate the cells' sphere formation ability (scale bar=200 μm). DEAB was used to inhibit the reaction of ALDH1 and also served as a negative control. […] The β-actin was used as a protein loading control. The histogram represents the relative fold change of protein expression (right panel). […] A2780-ALDH1 (upper panel) and CP70-shALDH1 (lower panel) cells were seeded into 96-well plates to evaluate their sphere formation ability (scale bar=200 μm).
FIGS. 2A-2D show ALDH1 regulates stemness and tumourigenic ability through the FoxM1 and Notch1 signalling pathways. […] Representative images show spheres generated from single-cell cultures after 10 days. The lower panel depicts the relative sphere formation ratio (scale bar=200 μm). […] V: vector.
as §3, §1

[7] = test system: ALDH1, FoxM1, Notch1, Oct-4 and Nanog expression in A2780 and CP70 cells; experiment: Western blotting of ALDH1, FoxM1, Notch1 and CSC markers; assay type: cell-based, human; conditions: A2780-High and CP70-High cells; 10 μM ATRA for 28 days
[8] = test system: A2780-High and CP70-High cells; experiment: Transwell invasion assay; assay type: cell-based, human; conditions: 10 μM ATRA for 28 days
Description: (§6) Cells (1×10^5) were seeded on Transwell filters with a pore size of 8 μm (Corning Costar) and were allowed to migrate toward medium containing 10% FBS. After 8 h, the cells on the upper surface of the Transwell membrane were removed with a cotton swab, and the migrated cells (on the underside of the Transwell) were fixed and stained with methanol and Giemsa staining dye (Merck, Darmstadt, Germany). The invasion assay was conducted in the same manner as the migration assay, except that Matrigel (BD Biosciences) was used, the incubation time differed (24 h) and the number of cells added to the upper chamber was 2×10^5 cells. Cell migration and invasion were quantified by counting the migrated cells in six random fields under a light microscope.

ES2-High cells [9] = experiment: Transwell migration assay; assay type: cell-based, human; conditions: ATRA
Description: as §2, §6

ALDH1 [10] = experiment: Immunohistochemical staining for ALDH1 in tumour tissue sections
[11] = test system: A2780-High and CP70-High cells; experiment: Transwell migration assay; assay type: cell-based, human; conditions: 10 μM ATRA for 28 days
Description: as §6

CP70-High tumour = experiment: Antitumour efficacy of ATRA in mouse xenografts; assay type: in vivo, NOD/SCID mice; conditions: 1×10^6 cells s.c.; ATRA 0.05 or 0.1 mg into the peritoneal cavity three times per week; at 22 days after tumour cell inoculation
Description: (§7) Cell suspensions of 1×10^6 A2780-High or CP70-High cells were inoculated subcutaneously into mice.
as §4, §7

A2780-High tumour = experiment: Antitumour efficacy of ATRA in mouse xenografts; assay type: in vivo, NOD/SCID mice
Description: as §7, §4, §7

[12] = 1×10^4 cells pretreated with ATRA (10 μM) for 28 days, inoculated into mice
[13] = CP70-High cells pretreated with ATRA, 1 × 10^4 cells injected

CC1=C(/C=C/C(C)=C/C=C/C(C)=C/C(=O)O)C(C)(C)CCC1 [ATRA, all-trans retinoic acid]
ALDH1 activity (ALDH1 [1]; A2780-High and CP70-High cells, 10 μM ATRA for 28 days): significantly reduced | proportion of ALDH1-High cells (ALDH1 [1]; A2780-Low and CP70-Low cells, ATRA (10 μM) or paclitaxel (60 ng/ml) for 4 days): decreased the proportion of ALDH1-High ovarian cancer cells | sphere formation ability [2]: inhibited | tumour size (CP70-High cells; [12]): significant reduction of tumour size | Number of tumours/number of injections (CP70-High cells; [13]): 4/5 | average tumour volume (CP70-High cells; [13]): (545) mm^3 | Tumour-initiating cell frequency (CP70-High cells; CP70-High cells pretreated with ATRA, calculated with ELDA software): 1/6213 | tumour formation ability (A2780-High cells; [12]): almost completely abrogated | Number of tumours/number of injections (A2780-High cells; A2780-High cells pretreated with ATRA, 1 × 10^4 cells injected): 4/9 | proliferation (cell doubling time) (ES2-High cells [3]): did not affect proliferation | ALDH1 expression [4]: inhibited | FoxM1 expression [4]: inhibited | Notch1 expression [4]: inhibited | proliferation (cell doubling time) [5]: did not affect proliferation | sphere formation ability [6]: significantly reduced | ALDH1 expression [7]: significantly reduced | FoxM1 expression [7]: significantly reduced | Notch1 expression [7]: significantly reduced | cell invasion ability [8]: significantly reduced | cell migration ability (ES2-High cells [9]): inhibited | ALDH1 expression in tumour cells from tissue sections (ALDH1 [10]; ATRA-treated mice compared with control mice): downregulated | ALDH1 expression in tumour cells (immunostaining) (ALDH1 [10]; tumours from ATRA-pretreated ALDH1-High cells): reduced ALDH1 expression | cell migration ability [11]: significantly reduced | tumour growth (CP70-High tumour): significantly suppressed | tumour growth (A2780-High tumour; 1×10^6 cells s.c., ATRA 0.05 or 0.1 mg into the peritoneal cavity three times per week): inhibited A2780-High tumour growth in a dose-dependent manner | effective dose for mice (A2780-High tumour; mouse xenografts, administered doses 0.05 and 0.1 mg): at least 0.05 mg
